Assays:
[1] = tested on: DRG neurons from postnatal day 5 rats; assay: Neurite outgrowth assay, DRG neurons with myelin-associated inhibitors; type: cell-based, rat; details: 24 hours
Procedure: FIG. 5. CK2 rescues postnatal rat neurones from inhibition of neurite outgrowth by the myelin-associated inhibitors, Nogo, MAG and OMgp. (A) DRG neurones from postnatal day 5 rats were cultured with or without the Nogo-66 fragment in the presence of the indicated reagents. After 24 hours from addition of the indicated reagents, cells were fixed and ã-tubulin III was detected by immunofluorescence. (B) The number of cells extending neurites of more than 20 μm and total ã-tubulin III positive cell number were counted from images taken in (A). The population of cells extending neurite-like structures of more than 20 μm was indicated as a percentage of total cell number. An average of three experiments is shown. Error bars indicate S. E. between experiments. Data were analysed with student's t test. […] (E) The number of cells extending neurites of more than 20 μm and total ã-tubulin III positive cell number were counted from images taken in (C and D). […] Cells were fixed and ã-tubulin III was detected by immunofluorescence. […] Over-expressed NgR1-Myc was detected by immunofluorescence. (H) The number of Myc-positive cells extending neurites of more than 20 μm and total Myc-positive cell number were counted from images taken in (G). […]

[2] = tested on: Entorhinal-hippocampal slices; assay: Regeneration of entorhinal-hippocampal projection in lesioned organotypic slice culture (Dil tracing); type: cell-based, mice; details: slices treated with either PKA or ATP alone, 8 days
Procedure: (A) Organotypic culture of Entorhinal-hippocampal slices was prepared from 129X1/SvJJmsSlc (albino) mice postnatal day 5 and 6. Culture media were changed every 2 days. […], On the day in vitro (DIV) 10, the entorhinal-hippocampal projection was transected with sterile scalpel brade. The lesioned slices were cultured for 8 days with or without 1250 U/ml PKA and 100 μM ATP. On the DIV17, a small aliquot of Dil paste (Invitrogen) was applied on the entorhinal side of the transection. […] Location of lesion made at DIV 10 is indicated as a white dot line. (B) Intensity of Dil signal near the dentate gyrus was measured with ImageJ (version 1.42q, National institute of health, USA). Measured area (100 μm square) was indicated in (A) as a open white square. Intensity was indicated as a percentage of Dil signal in control (not lesioned). Experiment was repeated for 5 time in triplicate. Typical images are indicated in (A), and average of the 5 independent experiments was plotted in (B). A student t-test was used to assess statistical significance.
In FIG. 10, entorhinal-hippocampal slices from mice postnatal day 5 or 6 were transected on day in vitro (DIV) 10, and they were incubated with or without PKA and ATP for 8 days. […]

Molecule | neurite outgrowth in the presence of the Nogo-66 fragment [1] | location of Dil [2]
Nc1ncnc2c1ncn2[C@@H]1O[C@H](COP(=O)(O)OP(=O)(O)OP(=O)(O)O)[C@@H](O)[C@H]1O [ATP] | did not suppress | location of Dil was limited in the entorhinal side of the transection
BDNF: brain-derived neurotrophic factor, member of the neurotrophin nerve growth factor family, purchased from Merck (protein, UniProt P23560 19-247, looked up) Neurotrophic factor BDNF …: APMKEANIRGQGGLAYPGVRTHGTLESVNGPKAGSRGLTSLADTFEHVIEELLDEDQKVRPNEENNKDADLYTSRVMLSSQVPLEPPLLFLLEEYKNYLDAANMSMRVRRHSDPARRGELSVCDSISEWVTAADKKTAVDMSGGTVTVLEKVPVSKGQLKQYFYETKCNPMGYTKEGCRGIDKRHWNSQCRTTQSYVRALTMDSKKRIGWRFIRIDTSCVCTLTIKRGR | fails to block | –

From patent US9089565B2, “Compositions and methods for causing neurite outgrowth” (MEDICAL RESEARCH COUNCIL, priority 2009, dated 2015)
